Reference: patent publication US10538486B2, “Hydroxamic acid type contrast agent containing radioisotope fluoride, preparation method and application thereof” (Institute of Nuclear Energy Research, Atomic Energy …, priority 2017, dated 2020)

Assays:
Format in all cases: biochemical
Conditions in all cases: 4 concentrations in DMSO, 30 min at room temperature, fluorescence 355/460 nm, FIG. 5
HDAC6 = molecular target: T1, HDAC6 (Homo sapiens, UniProt Q9UBN7); assay: HDAC Fluorometric Assay Kit enzyme activity assay, HDAC6
T1 construct: purchased Enzolifesciences
T1 sequence (Q9UBN7 1-1215): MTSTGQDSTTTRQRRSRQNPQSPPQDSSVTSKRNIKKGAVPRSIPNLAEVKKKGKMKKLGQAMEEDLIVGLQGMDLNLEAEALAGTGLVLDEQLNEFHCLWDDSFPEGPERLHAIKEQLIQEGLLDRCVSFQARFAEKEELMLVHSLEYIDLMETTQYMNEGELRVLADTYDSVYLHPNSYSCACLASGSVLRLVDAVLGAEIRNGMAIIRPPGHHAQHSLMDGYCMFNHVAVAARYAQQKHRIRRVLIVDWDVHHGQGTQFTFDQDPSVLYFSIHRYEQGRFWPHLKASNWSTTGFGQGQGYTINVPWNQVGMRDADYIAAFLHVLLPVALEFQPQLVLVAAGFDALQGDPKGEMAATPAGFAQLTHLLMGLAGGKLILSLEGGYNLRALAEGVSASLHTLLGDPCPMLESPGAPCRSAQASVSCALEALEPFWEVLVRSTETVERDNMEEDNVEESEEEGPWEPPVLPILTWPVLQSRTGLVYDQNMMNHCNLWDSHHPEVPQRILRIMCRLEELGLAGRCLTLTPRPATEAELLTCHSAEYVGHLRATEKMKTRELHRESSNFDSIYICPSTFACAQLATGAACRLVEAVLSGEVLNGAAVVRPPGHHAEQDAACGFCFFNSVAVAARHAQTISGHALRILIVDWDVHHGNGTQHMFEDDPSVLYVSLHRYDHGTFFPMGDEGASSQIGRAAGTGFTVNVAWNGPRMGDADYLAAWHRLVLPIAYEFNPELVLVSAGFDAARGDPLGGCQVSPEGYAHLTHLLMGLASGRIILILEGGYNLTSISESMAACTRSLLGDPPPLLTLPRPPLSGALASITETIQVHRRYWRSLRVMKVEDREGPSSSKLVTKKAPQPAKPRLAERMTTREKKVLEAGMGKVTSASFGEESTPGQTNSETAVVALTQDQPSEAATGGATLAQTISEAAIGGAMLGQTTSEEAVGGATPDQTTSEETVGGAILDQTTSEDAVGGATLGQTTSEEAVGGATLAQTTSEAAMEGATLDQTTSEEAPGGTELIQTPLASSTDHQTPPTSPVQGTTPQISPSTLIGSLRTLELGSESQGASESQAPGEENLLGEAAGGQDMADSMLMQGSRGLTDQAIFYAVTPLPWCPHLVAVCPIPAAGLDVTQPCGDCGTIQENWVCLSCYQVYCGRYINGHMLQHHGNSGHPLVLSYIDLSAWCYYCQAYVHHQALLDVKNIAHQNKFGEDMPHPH
Description: (§1) To further investigate whether the fluorine-18-hydroxamic acid-based compound is useful as a HDAC inhibitor, the inhibitory effect on HDAC is assayed with the fluorine-19-hydroxamic acid-based compound. The fluorine-18-hydroxamic acid-based compound and the fluorine-19-hydroxamic acid-based compound have the same chemical properties, except that the fluorine-18-hydroxamic acid-based compound has radioactivity, and the fluorine-19-hydroxamic acid-based compound has no radioactivity.
(§2) The fluorine-19-hydroxamic acid-based compound was diluted in dimethyl sulfoxide (DMSO) to give 4 different concentrations. The enzyme activity of various subtypes of HDAC was assayed with a HDAC Fluorometric Assay Kit (available from Enzolifesciences). The fluorine-19-hydroxamic acid-based compound (10 μL) and enzyme (15 μL) were added to a white opaque 96-well plate, and then a substrate (25 μL) was added and incubated for 30 min at room temperature. After incubation, the fluorescence intensity of the 96-well plate was measured on a microplate reader at an excitation wavelength of 355 nm and an emission wavelength of 460 nm, and the fluorescence intensity measured was analyzed by Graph Pad Prism 6 to calculate IC50 (as shown in FIG. 5).

HDAC3 = molecular target: T2, HDAC3 (Homo sapiens, UniProt O15379); assay: HDAC Fluorometric Assay Kit enzyme activity assay, HDAC3
T2 construct: purchased Enzolifesciences
Description: as §1, §2

HDAC8 = molecular target: T3, HDAC8 (Homo sapiens, UniProt Q9BY41); assay: HDAC Fluorometric Assay Kit enzyme activity assay, HDAC8
T3 construct: purchased Enzolifesciences
T3 sequence (Q9BY41 1-377): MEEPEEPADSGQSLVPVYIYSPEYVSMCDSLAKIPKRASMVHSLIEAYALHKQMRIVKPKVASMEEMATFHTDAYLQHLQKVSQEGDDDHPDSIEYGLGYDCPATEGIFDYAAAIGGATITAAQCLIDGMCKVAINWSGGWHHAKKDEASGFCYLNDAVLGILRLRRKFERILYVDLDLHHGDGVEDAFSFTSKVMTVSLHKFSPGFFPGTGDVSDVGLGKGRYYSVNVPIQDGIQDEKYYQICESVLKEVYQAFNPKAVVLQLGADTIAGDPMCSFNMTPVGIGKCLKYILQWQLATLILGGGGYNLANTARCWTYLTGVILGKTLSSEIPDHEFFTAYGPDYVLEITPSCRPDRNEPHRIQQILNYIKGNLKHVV
Description: as §1, §2

T2 sequence (O15379 whole entry, species assumed): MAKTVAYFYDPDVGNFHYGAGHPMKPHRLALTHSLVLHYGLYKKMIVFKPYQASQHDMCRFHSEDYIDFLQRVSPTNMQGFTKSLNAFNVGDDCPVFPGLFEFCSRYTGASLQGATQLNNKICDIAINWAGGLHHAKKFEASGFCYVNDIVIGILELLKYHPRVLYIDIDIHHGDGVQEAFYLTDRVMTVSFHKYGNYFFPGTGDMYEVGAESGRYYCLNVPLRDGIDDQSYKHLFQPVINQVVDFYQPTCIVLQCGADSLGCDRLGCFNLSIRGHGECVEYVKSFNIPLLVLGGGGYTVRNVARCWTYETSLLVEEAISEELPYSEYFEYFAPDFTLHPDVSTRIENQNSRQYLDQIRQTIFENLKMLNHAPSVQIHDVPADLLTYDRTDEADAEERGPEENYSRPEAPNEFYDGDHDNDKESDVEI
T2 sequence (O75376 395-489 partner limits assumed, species assumed): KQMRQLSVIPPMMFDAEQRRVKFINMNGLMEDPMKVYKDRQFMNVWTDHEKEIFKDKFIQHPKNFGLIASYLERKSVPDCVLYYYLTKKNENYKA

- IC50, inhibitory effect on HDAC6 (HDAC6): selectively inhibited
- IC50, inhibitory effect on HDAC3 (HDAC3): selectively inhibited
- IC50, inhibitory effect on HDAC8 (HDAC8): selectively inhibited
Compound: Cc1cc(F)ccc1OCCCC(=O)NO
